Patent US20040029129A1, “Identification of essential genes in microorganisms” (priority 2001, published 2004)
Values after ≈ are worked out from the molar mass of the structure shown.

Assays:
[1] = system: Staphylococcus aureus cells containing antisense to the Beta subunit of DNA gyrase (S1M10000001F08); test: Antibiotic potency in cells with xylose-induced antisense to the Beta subunit of DNA gyrase; format: cell-based; conditions: 12 mM xylose versus 0 mM xylose; FIG. 10
[2] = system: E. coli transformed with IPTG-inducible antisense clones; test: Cell-based assay using antisense complementary to genes encoding ribosomal proteins (antibiotic sensitivity with and without IPTG); conditions: with IPTG versus without IPTG; for Sensitivity to antibiotic of cells transcribing antisense to protein synthesis genes: AS-rplL, AS-rplW, AS-rplL/J and other protein synthesis gene clones
[3] = system: cells which overexpress the defB gene product; test: Growth of cells overexpressing the defB gene in the presence of antibiotics; format: cell-based; conditions: FIG. 16
[4] = system: cells which overexpress the folA gene product; test: Growth of cells overexpressing the folA gene in the presence of antibiotics; format: cell-based; conditions: for resistance conferred by overexpression of the folA gene: FIG. 15
[5] = system: Strains of Staphylococcus aureus containing plasmids encoding antisense nucleic acids; test: Selective disappearance of amplification products of strains underexpressing the antibiotic's target (mixed antisense strains); format: cell-based; conditions: rich medium
[6] = system: Staphylococcus aureus cells overexpressing a gene product required for proliferation; test: Growth of strains overexpressing a proliferation-required gene (XylT5 promoter) at elevated antibiotic concentrations; format: cell-based; conditions: for resistance conferred by overexpression of the defB gene: defB (peptide deformylase) overexpressed, FIG. 16; for resistance conferred by overexpression of the fabF gene: fabF (β keto-acyl carrier protein synthase II) overexpressed, FIG. 17; for resistance conferred by overexpression of the fabI gene: fabI (enoyl-acyl carrier protein reductase) overexpressed, FIG. 14; for resistance conferred by overexpression of the folA gene: folA (dihydrofolate reductase) overexpressed, FIG. 15
[7] = system: overexpression of the fabF gene (β keto-acyl carrier protein synthase); test: Growth of cells overexpressing the fabF gene in the presence of antibiotics; format: cell-based; conditions: FIG. 17
[8] = system: overexpression of the fabI gene; test: Growth of cells overexpressing the fabI gene in the presence of antibiotics; format: cell-based; conditions: FIG. 14
[9] = system: mixture of nine S. aureus strains overexpressing fabF, defB, folA, fabI, ileS, fusA, gyrB, murA, rpoB; test: Selection of a strain overexpressing the target gene product from a mixture of nine overexpressing strains; format: cell-based; conditions: folA gene; at least 60 colonies

Compound: CO/N=C(\C(=O)N[C@@H]1C(=O)N2C(C(=O)O)=C(COC(C)=O)CS[C@H]12)c1csc(N)n1 [Cefotaxime]
- Potency in induced cells as compared to uninduced cells [1]: not significantly different

Compound: CO[C@@]1(NC(=O)Cc2cccs2)C(=O)N2C(C(=O)O)=C(COC(N)=O)CS[C@@H]21 [Cefoxitin]
- Potency in induced cells as compared to uninduced cells [1]: not significantly different

Compound: CC[C@H]1OC(=O)[C@H](C)[C@@H](O[C@H]2C[C@@](C)(OC)[C@@H](O)[C@H](C)O2)[C@H](C)[C@@H](O[C@@H]2O[C@H](C)C[C@H](N(C)C)[C@H]2O)[C@](C)(O)C[C@@H](C)C(=O)[C@H](C)[C@@H](O)[C@]1(C)O [Erythromycin]
- Sensitivity to antibiotic of cells transcribing antisense to genes not involved in protein synthesis ([2]; AS-atpB/E, AS-visC, AS-elaD, AS-yohH): do not
- Sensitivity to antibiotic of cells transcribing antisense to protein synthesis genes [2]: increased sensitivity

Compound: CC(=O)O[C@H]1C[C@@]2(C)[C@@H](C[C@@H](O)[C@H]3[C@@]4(C)CC[C@@H](O)[C@@H](C)[C@@H]4CC[C@@]32C)/C1=C(\CCC=C(C)C)C(=O)O [Fusidic acid]
- Potency in induced cells as compared to uninduced cells [1]: not significantly different

Compound: CCC[C@@H]1C[C@@H](C(=O)N[C@@H]([C@H]2O[C@H](SC)[C@H](O)[C@@H](O)[C@H]2O)[C@@H](C)O)N(C)C1 [Lincomycin]
- Potency in induced cells as compared to uninduced cells [1]: not significantly different

Compound: CCn1cc(C(=O)O)c(=O)c2ccc(C)nc21 [Nalidixic acid]
- Sensitivity to antibiotic of cells transcribing antisense to protein synthesis genes [2]: does not show increased sensitivity

Compound: NC[C@H]1O[C@H](O[C@H]2[C@H](O)[C@@H](O[C@H]3O[C@H](CO)[C@@H](O)[C@H](N)[C@H]3O)[C@H](N)C[C@@H]2N)[C@H](N)C[C@@H]1O [Tobramycin]
- Potency in induced cells as compared to uninduced cells [1]: not significantly different

Compound: CN[C@H](CC(C)C)C(=O)N[C@H]1C(=O)N[C@@H](CC(N)=O)C(=O)N[C@H]2C(=O)N[C@H]3C(=O)N[C@H](C(=O)N[C@H](C(=O)O)c4cc(O)cc(O)c4-c4cc3ccc4O)[C@H](O)c3ccc(c(Cl)c3)Oc3cc2cc(c3O[C@@H]2O[C@H](CO)[C@@H](O)[C@H](O)[C@H]2O[C@H]2C[C@](C)(N)[C@H](O)[C@H](C)O2)Oc2ccc(cc2Cl)[C@H]1O [Vancomycin]
- Potency in induced cells as compared to uninduced cells [1]: not significantly different

Compound: C/C=C/C/C=C/CCC(=O)[C@H]1O[C@H]1C(N)=O [cerulenin]
- resistance conferred by overexpression of the defB gene [3]: does not confer resistance
- resistance conferred by overexpression of the folA gene [4]: does not confer resistance
- IC50 ([5]; read-out: IC50 (middle concentration used)): 9 µg/mL (≈ 40.3 µM)
- resistance conferred by overexpression of the defB gene [6]: did not confer resistance
- resistance conferred by overexpression of the fabF gene [6]: conferred resistance
- resistance conferred by overexpression of the fabI gene [6]: did not confer resistance
- resistance conferred by overexpression of the folA gene [6]: did not confer resistance
- resistance conferred by overexpression of the fabF gene [7]: conferred resistance
- resistance conferred by overexpression of the fabI gene [8]: does not confer resistance

Compound: C/C(=C\C(=O)OCCCCCCCCC(=O)O)C[C@@H]1OC[C@H](C[C@@H]2O[C@H]2[C@@H](C)[C@H](C)O)[C@@H](O)[C@H]1O [mupriocin]
- IC50 (middle concentration used) [5]: 8.6 µg/mL (≈ 17.2 µM)

Compound: CO[C@@H]1[C@@H](OC(N)=O)[C@@H](O)[C@H](Oc2ccc3c(O)c(NC(=O)c4ccc(O)c(CC=C(C)C)c4)c(=O)oc3c2C)OC1(C)C [novobiocin]
- Potency in induced cells as compared to uninduced cells [1]: significantly different

Compound: Oc1cc(Cl)ccc1Oc1ccc(Cl)cc1Cl [triclosan]
- resistance conferred by overexpression of the defB gene [3]: does not confer resistance
- resistance conferred by overexpression of the folA gene [4]: does not confer resistance
- resistance conferred by overexpression of the defB gene [6]: did not confer resistance
- resistance conferred by overexpression of the fabF gene [6]: did not confer resistance
- resistance conferred by overexpression of the fabI gene [6]: conferred resistance
- resistance conferred by overexpression of the folA gene [6]: did not confer resistance
- resistance conferred by overexpression of the fabF gene [7]: does not confer resistance
- resistance conferred by overexpression of the fabI gene [8]: confers resistance

Compound: COc1cc(Cc2cnc(N)nc2N)cc(OC)c1OC [trimethoprim]
- Plasmids from colonies which grew in the presence of the antibiotic that contained the target gene [9]: 81%
- resistance conferred by overexpression of the defB gene [3]: does not confer resistance
- Potency in induced cells as compared to uninduced cells [1]: not significantly different
- resistance conferred by overexpression of the folA gene [4]: confers resistance
- growth of cells overexpressing the folA gene product in presence of antibiotic ([4]; at appropriate concentrations of inducer, FIG. 13): able to grow at elevated concentrations
- resistance conferred by overexpression of the defB gene [6]: did not confer resistance
- resistance conferred by overexpression of the fabF gene [6]: did not confer resistance
- resistance conferred by overexpression of the fabI gene [6]: did not confer resistance
- resistance conferred by overexpression of the folA gene [6]: conferred resistance
- resistance conferred by overexpression of the fabF gene [7]: does not confer resistance
- resistance conferred by overexpression of the fabI gene [8]: does not confer resistance
